Results from US7879795B2, “Enhancement of tigecycline potency using efflux pump inhibitors” (Mpex Pharmaceuticals, Inc., priority 2004, dated 2011).

What was measured:
[1] = test system: PAM 1738, MexCD-OprJ over-expressed, ΔMexAB-OprM ΔMexEF-OprN; test: microbe, parasite or virus in culture; format: cell-based, P. aeruginosa; design: Tigecycline MIC in the presence of Compound 21: unit not given here; conditions: PAM 1738
Experimental: (§1) The ability of compound 21 to increase susceptibility to tigecycline was also assessed. The tigecycline potentiating activity of compound 21 was assessed by the checkerboard assay (Antimicrobial Combinations, Antibiotics in Laboratory Medicine, ed. Victor Lorian, M.D., Fourth edition, 1996, pp 333-338, which is incorporated herein by reference in its entirety) using a broth micro-dilution method performed as recommended by the CSLI (Clinical and Laboratory Standards Institute, formerly NCCLS) guidelines (National Committee for Clinical Laboratory Standards 2003. Methods for Dilution Antimicrobial Susceptibility Tests for Bacteria That Grow Aerobically—Sixth Edition; Approved Standard. NCCLS Document M7-A6, Vol 20 No. 2). In this assay, multiple dilutions of the two drugs, compound 21 and tigecycline, were tested alone and in combination, at concentrations equal to, above and below their respective minimal inhibitory concentrations (MICs). […] The stock solution was further diluted in Mueller Hinton Broth (MHB). Stock solutions were stored at −80° C.
(§2) The checkerboard assay was performed in microtiter plates. Tigecycline was diluted in the x axis, each column containing a single concentration of tigecycline. Compound 21 was diluted in the y axis, each row containing an equal concentration of the EPI. […] The assay was performed in MHB with a final bacterial inoculum of 5×10^5 CFU/ml (from an early-log phase culture). The microtiter plates were incubated for 20 hours at 35° C. and then read using a microtiter plate reader (Molecular Devices) at 650 nm, as well as by visual observation using a microtiter plate-reading mirror.

[2] = test system: PAM 1723, MexAB-OprM over-expressed, ΔMexCD-OprJ ΔMexEF-OprN; test: microbe, parasite or virus in culture; format: cell-based, P. aeruginosa; design: Tigecycline MIC in the presence of Compound 21: unit not given here; conditions: PAM 1723
Experimental: as §1, §2

[3] = test system: PAM 2466, mexR1, MexAB-OprM and MexXY-OprM over-expressed; test: microbe, parasite or virus in culture; format: cell-based, P. aeruginosa; design: Tigecycline MIC in the presence of Compound 21: unit not given here; conditions: PAM 2466
Experimental: as §1, §2

[4] = test system: PAM 1323, mexZ, MexXY-OprM over-expressed, MexAB-OprM low level; test: microbe, parasite or virus in culture; format: cell-based, P. aeruginosa; design: Tigecycline MIC in the presence of Compound 21: unit not given here; conditions: PAM 1323
Experimental: as §1, §2

[5] = test system: 110 clinical isolates of P. aeruginosa; test: Tigecycline susceptibility of P. aeruginosa clinical isolates with fixed concentration of compound 21; format: cell-based
Experimental: To further characterize the clinical potential of tigecycline/EPI combinations, the microbiological activity of tigecycline in combination with compound 21 was investigated using clinical isolates of P. aeruginosa and other gram-negative bacteria. In several experiments, described below, the impact of a fixed concentration of compound 21 (2.5 μg/ml) on susceptibility to tigecycline was determined.
Results from an experiment using 110 clinical isolates of P. aeruginosa are presented in FIG. 1, as the distribution of tigecycline MICs with or without the EPI potentiator.

[6] = tigecycline with compound 21 at fixed […], 110 clinical isolates

NCCC[C@H](N)C(=O)N[C@H](Cc1ccc(C(F)(F)F)cc1)C(=O)Nc1cnc2ccccc2c1 [Compound 21, 2-(S),5-Diamino-pentanoic acid [1-(R)-(quinolin-3-ylcarbamoyl)-2-(4-trifluoromethyl-phenyl)-ethyl]amide]
1 µg/mL: MIC90, Tigecycline + EPI [5, 6]
2: Tigecycline MIC in the presence of Compound 21 ([2]; Compound 21 1.25 μg/ml) | Tigecycline MIC in the presence of Compound 21 ([3]; Compound 21 1.25 μg/ml) | Tigecycline MIC in the presence of Compound 21 ([4]; Compound 21 0.625 μg/ml)
4: Tigecycline MIC in the presence of Compound 21 ([2]; Compound 21 0.625 μg/ml) | Tigecycline MIC in the presence of Compound 21 ([3]; Compound 21 0.625 μg/ml)
8 fold: reduction of tigecycline MIC50 and MIC90 of the population ([5]; compound 21 at […])
0.25 µg/mL: MIC50, Tigecycline + EPI [5, 6]
1: Tigecycline MIC in the presence of Compound 21 ([1]; Compound 21 0.625 μg/ml) | Tigecycline MIC in the presence of Compound 21 ([4]; Compound 21 1.25 μg/ml)
98%: strains that responded to compound 21 ([5]; individual strains tested)
0.5: Tigecycline MIC in the presence of Compound 21 ([1]; Compound 21 1.25 μg/ml) | Tigecycline MIC in the presence of Compound 21 ([2]; Compound 21 5 μg/ml) | Tigecycline MIC in the presence of Compound 21 ([2]; Compound 21 10 μg/ml) | Tigecycline MIC in the presence of Compound 21 ([2]; Compound 21 20 μg/ml) | Tigecycline MIC in the presence of Compound 21 ([2]; Compound 21 40 μg/ml) | Tigecycline MIC in the presence of Compound 21 ([2]; Compound 21 […]) | Tigecycline MIC in the presence of Compound 21 ([3]; Compound 21 5 μg/ml) | Tigecycline MIC in the presence of Compound 21 ([3]; Compound 21 10 μg/ml) | Tigecycline MIC in the presence of Compound 21 ([3]; Compound 21 20 μg/ml) | Tigecycline MIC in the presence of Compound 21 ([3]; Compound 21 40 μg/ml) | Tigecycline MIC in the presence of Compound 21 ([3]; Compound 21 […]) | Tigecycline MIC in the presence of Compound 21 ([4]; Compound 21 5 μg/ml) | Tigecycline MIC in the presence of Compound 21 ([4]; Compound 21 10 μg/ml) | Tigecycline MIC in the presence of Compound 21 ([4]; Compound 21 20 μg/ml) | Tigecycline MIC in the presence of Compound 21 ([4]; Compound 21 40 μg/ml) | Tigecycline MIC in the presence of Compound 21 ([4]; Compound 21 […])
0.25: Tigecycline MIC in the presence of Compound 21 ([1]; Compound 21 5 μg/ml) | Tigecycline MIC in the presence of Compound 21 ([1]; Compound 21 10 μg/ml) | Tigecycline MIC in the presence of Compound 21 ([1]; Compound 21 20 μg/ml) | Tigecycline MIC in the presence of Compound 21 ([1]; Compound 21 40 μg/ml) | Tigecycline MIC in the presence of Compound 21 ([1]; Compound 21 […])
